Data on 1 molecule can be found in patent US20090036437A1, “PHARMACEUTICAL COMPOSITION COMPRISING PHENOXAZINIUM COMPOUND AS AN ACTIVE INGREDIENT” (priority 2005, published 2009).

The nature of series [1]: in vitro growth-inhibiting assay of rat L6 cells. Type of series: cell-based. The settings on record: rat; Table 8; read-out: 50% growth-inhibiting concentration (nM) cytotoxicity L6. As to the method:
Rat L6 cell (rat skeletal myoblast cell) was cultured in RPMI-1640 culture medium supplemented with 1% of L-glutamine (200 mM) and fetal calf serum (10%) under 5% CO2 concentration at 37° C. A test sample was prepared by dissolving the test compounds according to the present invention and a positive control drug in DMSO to a predetermined concentration. After pre-culture had been finished, the culture medium containing the cells in a logarithmic phase was placed into each well of a 96-well culture plate, and the test sample comprising the predetermined amount of the test compound, and DMSO without the test compound were added to the wells in duplicate.
(§1) After incubation of the culture plate for 72 hours in an incubator, a growth-inhibiting activity was assayed as follows. Alamar Blue aqueous solution (10 μL) was added to each well followed by a further two-hour culture. The culture plate was then attached to a fluorescence micro titer plate reader (Spectramax Gemeni XS; U.S. Molecular Device Co.), and the intensity of fluorescence at 588 nm was detected with an excitation wave length of 536 nm. A residual ratio of L6 cells was calculated with respect to a group treated with the test sample and a control group. A growth-inhibiting ratio for L6 cells was then calculated from the resulting residual ratio in accordance with the following equation to determine 50% growth-inhibiting concentration (EC50).
Growth-inhibiting ratio (%)=[1−(C−A)/(B−A)]×100 • A: Initial number of cells; • B: Number of the cells in the control after 3 days; and • C: Number of the cells treated with the test sample after 3 days Determination of Pharmaceutical effect for Chloroquine-Resistant Malaria

For series [2], the system named is Trypanosoma brucei rhodensiense (STIB 900 strain). Kind of series: in vitro growth-inhibiting screening assay, protozoa of African trypanosomiasis. Type of series: cell-based. As to the method:
This test was done using a trypomastigote of the protozoa of Trypanosoma brucei rhodensiense (STIB 900 strain) ranging in blood stream. MEM medium sterilized by filtration was supplemented with 25 mM of N-2-hydroxyethylpiperazine-2-ethanesulfonic acid (HEPES), 1 g/L of glucose, 1% of MEM non-essential amino acids, 0.2 mM of 2-mercaptoethanol, 2 mM of sodium pyruvate, 1 mM of hypoxathine and 15% of heat-treated horse serum. The protozoa were cultured under CO2 concentration of 5%, at 37° C.
A test sample was prepared by dissolving the test compounds according to the present invention and a positive control drug (Melarsoprol) in DMSO to a predetermined concentration. Culture medium containing the protozoa of 8×10^3, and the test sample comprising the predetermined amount of the test compound, and DMSO without the test compound were added into each well of 96-well culture plate to a final volume of 100 μL in duplicate.
as §1, with “Co.),” for “Co.), and”, “with” for “with an”, “nm to calculate an infection” for “nm. A residual”, “the protozoa” for “L6 cells was calculated”, “ratio” for “ratio for L6 cells”, “infection” for “residual”
Growth-inhibiting ratio (%)=[1−(b−a)/(c−a)]×100 • a: Initial infection ratio; • b: Infection ratio of the test sample group; and • c: Infection ratio of the control group.
A selective toxicity coefficient, which is used as an index for the selective toxicity for the protozoa of African trypanosomiasis, was calculated by the following equation, and the pharmaceutical effect was determined.
Selective toxicity coefficient=(EC50 value of the test sample for rat L6 cell)/(EC50 value of the test sample for the protozoa of African typanosomiasis)

Regarding `Nc1nc(N)nc(Nc2ccc([As]3SCC(CO)S3)cc2)n1` (stereo not drawn) [Melarsoprol, reference compound], the EC50 at 72 h in series [1] worked out at 7800 nM. In series [2] (EC50 rat L6 cell / EC50 protozoa of African trypanosomiasis), the Selective toxicity was 1300. Besides, the EC50 in series [2] (Trypanosoma brucei, STIB900, 72 h, read-out: 50% growth-inhibiting concentration (nM) Trypanosoma brucei rhod.) was found to be 6 nM.
